According to patent publication US8765147B2, “Endophytic fungi from Pteromischum sp. plant, compounds and methods of use” (The Regents of the University of California, priority 2007, dated 2014):

Experiments:
Botrytis cinerea = experiment: Minimum inhibitory concentration (MIC), 24-well plate, potato dextrose broth; assay type: cell-based
Protocol: (§1) All plant pathogenic fungi used in the bioassay test system were obtained from Drs. Don Mathre and Nina Zidak of the MSU Department of Plant Sciences. All fungi were grown on potato dextrose agar (PDA) at 23° C. and only freshly transferred cultures (4-7 days old) were used in the fungal bioassay tests.
(§2) Assays were performed in sterile 24-well plates with each well containing 500 μl of potato dextrose broth. The plates were incubated from 48-288 hours at 25 C. The MIC was defined as the minimum concentration of compound resulting in no visible growth of the test organism. The compounds were dissolved in methanol which represented less than 0.5% total methanol in each test well. Several small plugs of agar 3×3×3 mm containing actively growing test fungi were then placed into each well with some wells serving as controls.

Rhizoctonia solani = experiment: as above; assay type: cell-based
Protocol: as §1, §2

Geotrichum canididum = experiment: as above; assay type: cell-based
Protocol: as §1, §2

Trichoderma virde = experiment: as above; assay type: cell-based
Protocol: as §1, §2

Sclerotinia sclerotiorum = experiment: as above; assay type: cell-based
Protocol: as §1, §2

Pythium ultimum = experiment: as above; assay type: cell-based
Protocol: as §1, §2

Fusarium solani = experiment: as above; assay type: cell-based
Protocol: as §1, §2

Aspergillus fumigatus = experiment: as above; assay type: cell-based
Protocol: as §1, §2

[1] = system: human peripheral blood mononuclear cells (PBMCs); experiment: Toxicity to peripheral blood mononuclear cells (7-AAD / Annexin V flow cytometry); conditions: 24 and 48 hours of culture, versus DMSO controls; cyclosporin result at or above Bug/ml
Protocol: The cells (PBMCs) were then stained with 7-AAD and Annexin V directly conjugated to FITC or PE and subjected to flow cytometry. The percentage of necrotic (7-AAD+/Annexin V+), apoptotic (7-AAD-/Annexin V+) and viable (7-AAD-/Annexin V−) cells were calculated using CellQuest software (BD Biosciences). […] Error bars represent standard deviations between triplicate treatment groups.
Blood was collected from healthy adult donors and peripheral blood mononuclear cells (PBMCs) were purified using Histopaque 1077 (Sigma Aldrich, St. Louis, Mo.) according to the manufacturer's instructions. […] Cells were washed twice with PBS followed by staining with Annexin V directly conjugated to PE or FITC and 7-AAD using the Annexin V Apoptosis Detection Kit I (BD Biosciences, San Jose, Calif.) as per the manufacturer's instructions. Cells were then subjected to flow cytometry on a FACS Calibur equipped with an HTS loader (BD Biosciences, San Jose, Calif.). The staining allowed for differentiation among viable, necrotic and apoptotic cells. The studies were repeated at least three times and the variation between the dead cells detected was recorded as a function of concentration over 24 and 48 hour test periods.

[2] = system: IL-2 production by activated CD4+ T cells; experiment: Inhibition of IL-2 production by activated CD4+ T cells (flow cytometry); assay type: cell-based; conditions: mouse spleen cells activated with ConA, anti-CD3/CD28 for 4 hours
Protocol: Total spleen cells were isolated from C57/B 6 mice and then were preactivated with ConA (1 ug/mL, Sigma-Aldrich, St. Louis, Mo.) for 2 days. These cells were then treated for 4 hours with cross-linked Hamster anti-mouse CD3/CD28 (1 ug/mL, BD Bioscience) antibodies in the Bruff's Medium containing 5% fetal bovine serum and 1× brefeldin A. After the activation, cells were fixed and analyzed for IL-2 production in the activated CD4± T cells using APC-conjugated anti-mouse IL-2 and PE-conjugated anti-mouse CD4 antibodies by flow cytometry.

“cyclic lipopeptide with a molecular mass of 1127.7 produced by C. dematium fungus CR-12; contains Val-Ile-Ser-Ile [Colutellin A, colutellin A]” was tested, and the MIC (Botrytis cinerea; after 48 h) was 3.6 µg/mL, the MIC (Botrytis cinerea; after 144 h) was 10.8 µg/mL and the MIC (Botrytis cinerea; after 288 h) was 10.8 µg/mL. The MIC (Rhizoctonia solani; after 48 h) was >100 µg/mL, the MIC (Rhizoctonia solani; after 144 h) was >100 µg/mL and the MIC (Rhizoctonia solani; after 288 h) was >100 µg/mL. For the same substance, the MIC (Geotrichum canididum; after 48 h) was 3.6 µg/mL, the MIC (Geotrichum canididum; after 144 h) was >100 µg/mL and the MIC (Geotrichum canididum; after 288 h) was >100 µg/mL. For the same substance, the MIC (Trichoderma virde; after 48 h) was >100 µg/mL, the MIC (Trichoderma virde; after 144 h) was >100 µg/mL and the MIC (Trichoderma virde; after 288 h) was >100 µg/mL. It also gave an MIC (Sclerotinia sclerotiorum; after 48 h) of 3.6 µg/mL, an MIC (Sclerotinia sclerotiorum; after 144 h) of 10.8 µg/mL and an MIC (Sclerotinia sclerotiorum; after 288 h) of 32.4 µg/mL. For the same substance, the MIC (Pythium ultimum; after 48 h) was >100 µg/mL, the MIC (Pythium ultimum; after 144 h) was >100 µg/mL and the MIC (Pythium ultimum; after 288 h) was >100 µg/mL. The MIC (Fusarium solani; after 48 h) was 7.2 µg/mL, the MIC (Fusarium solani; after 144 h) was >100 µg/mL and the MIC (Fusarium solani; after 288 h) was >100 µg/mL. For the same substance, the MIC (Aspergillus fumigatus; after 48 h) was 2.4 µg/mL, the MIC (Aspergillus fumigatus; after 144 h) was >100 µg/mL and the MIC (Aspergillus fumigatus; after 288 h) was >100 µg/mL. For the same substance, the “Cytotoxicity on human PBMCs (necrosis and apoptosis)” value [1] was “did not induce significant cell death above the DMSO controls at any concentration tested” and the IC50 [2] was 167 nM.
